This note sets out measurements from patent publication US7935719B2, “N-substituted-azacyclylamines as histamine-3 antagonists” (Wyeth LLC, priority 2006, dated 2011).

Structures can show the parent of a compound that is named as a salt. Where only a bound is given, the exact number is not on record here.

In assay [1] the target is T1, Histamine Receptor H3 (Homo sapiens, UniProt Q9Y5N1). Kind of assay: Cyclic AMP assay for histamine receptor H3 antagonism activity. In kind it is cell-based. The arrangement: expressed in transfected cells. Particulars: stable H3 cells, histamine plus 10 μM forskolin, 30 min at 30° C., HitHunter cAMP kit. As to the method:
Cyclic Amp Assay for Histamine Receptor H3 Antagonism Activity.
Stable H3 cells are maintained in tissue culture flask in DMEM with high glucose, 10% FBS, 1× pen/strep, 500 ug/ml GY18, until experiment. Culture media is removed and cells are washed twice with PBS w/Ca+2 and Mg+2 plus 500 μM IBMX. Cells are then detached by tapping on the side of the flask and resuspend in the same buffer. Two thousand cells/well are incubated with 1 μM histamine plus 10 μM forskolin plus various concentrations of compounds in a total volume of 30 μL in 96 well plates for 30 min at 30° C. Final test compound concentrations range from 10^-4 M to 10-9.5 M at full log dilutions. Cyclic AMP levels are measured using HitHunter cAMP kit from Discoverx, cat#900041 according to manufacturer's instruction. Chemiluminescence signals are detected using Top Count (Packard). Cyclic AMP levels in control cells receiving 10 μM forskolin plus 100 nM histamine are considered 0%, and in cells receiving 10 uM forskolin plus 100 nM histamine plus 1 μM clobenpropit are considered 100%. Data are expressed as % control and analyzed using Prizm software. The Kb values are calculated using the following equation, KB=EC50 or IC50/[1+(ligand/Kd)].

Assay [2] has as its target T1, Histamine Receptor H3. Nature of the assay: Methyl histamine binding in human histamine H3 receptor cell line. Details: expressed in transfected cells; host or cells: HEK293T. The following applies: membranes of stably transfected HEK293T cells, radioligand 1 nM, Ki from IC50 by Cheng-Prusoff. As to the method: Evaluation of Methyl Histamine Binding in Human Histamine H3 Receptor Cell Line
The affinity of test compounds for the histamine 3 (H3) receptor is evaluated in the following manner. […] Cells are scraped from the plate, transferred to centrifuge tubes, washed one time in PBS by centrifugation in a Sorvall RT7 Plus centrifuge (2000 rpm 10 minutes, 4° C.). The resulting pellets are stored at −80° C. until ready for use. Cells are re-suspended in buffer (50 mM Tris pH=7.5) and placed in a Dounce homogenizer, douncing ten times to homogenize cells. The homogenate is spun down by centrifugation (Sorvall RT7 Plus, 1800 rpm 10 minutes, 4° C.). The supernatant is placed in a Corex tube and spun down by centrifugation (Sorvall RC 5c Plus, 17,000 rpm 20 minutes, 4° C.). The pellet is resuspended in buffer (50 mM Tris, pH 7.5). Protein concentration (ug/ul) is determined using the Micro-BCA Protein Determination. The binding assay is set up in a 96 well microtiter plate in a total volume of 250 uL. Non-specific binding is determined in the presence of 10 uM clobenpropit. The final radioligand concentration is 1 nM. The test compound is serially diluted using the Beckman Biomek2000 to a final approximate range of 100 uM to 100 pM. Membranes are suspended in buffer, homogenized in 2 bursts of ten seconds using a Vitris mechanical homogenizer set at power setting 5. Ten μg of membranes are added to each well. Following a one hour incubation at 30° C., the reaction is terminated by the addition of ice cold buffer and rapid filtration with a Packard Filtermate Harvester through a GF/B filter pre-soaked with 1% PEI for one hour. The plate is dried for one hour at 37° C. and 60 μL Microscint Scintillant is added to each well. The CPM per well is measured on a Packard Top Count NXT. Ki values are determined in nM. […] CPM values are expressed as % specific binding and plotted vs compound concentration. A curve is fitted using a four-parameter logistic fit and the IC50 value is determined. The Ki is calculated from this using the Cheng-Prusoff equation: […]=IC50/1+(L/Kd) where L=concentration of free radioligand used in the assay, and Kd is the dissociation constant of the radioligand for the receptor. L is determined for each experiment by counting an aliquot of the diluted radioligand (corresponding to that added to each well) and the Kd has previously been determined under identical conditions for this cell line/radioligand.

T1 sequence (Q9Y5N1 whole entry): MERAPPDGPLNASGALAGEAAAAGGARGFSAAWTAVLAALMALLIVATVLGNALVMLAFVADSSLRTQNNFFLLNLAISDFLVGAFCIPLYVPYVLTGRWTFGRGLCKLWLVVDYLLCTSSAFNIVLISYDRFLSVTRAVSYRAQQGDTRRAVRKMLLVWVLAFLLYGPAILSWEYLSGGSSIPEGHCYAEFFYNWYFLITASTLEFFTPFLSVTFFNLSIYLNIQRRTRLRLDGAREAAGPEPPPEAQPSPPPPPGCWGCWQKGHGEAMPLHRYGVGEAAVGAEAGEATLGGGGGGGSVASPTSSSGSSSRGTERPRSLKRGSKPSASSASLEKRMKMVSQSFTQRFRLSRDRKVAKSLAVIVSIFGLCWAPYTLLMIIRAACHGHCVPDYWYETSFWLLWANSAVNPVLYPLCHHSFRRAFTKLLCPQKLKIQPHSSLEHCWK

Take `N#Cc1ccc2c(ccn2-c2ccc(C(=O)N3CC[C@H](N4CCCC4)C3)cc2)c1` [Example 36, 1-{4-[(3′S)-1,3′-bipyrrolidin-1′-ylcarbonyl]phenyl}-1H-indole-5-carbonitrile]: the Kb on Histamine Receptor H3 [1] is under 10 nM. The same compound had a Ki on Histamine Receptor H3 [2] of under 10 nM.
Regarding `Cc1nc2ccccc2n1-c1ccc(C(=O)N2CC[C@H](N3CCC[C@H]3C)C2)cc1` [Example 21, (2R,3′S)-2-methyl-1′-[4-(2-methyl-1H-benzimidazol-1-yl)benzoyl]-1,3′-bipyrrolidine], the Kb at Histamine Receptor H3 [1] is under 10 nM. For the same compound, on Histamine Receptor H3 [2], the inhibition constant Ki is under 10 nM.
On to `O=C(c1ccc(-n2ccc3c(F)cccc32)cc1)N1CC[C@H](N2CCCC2)C1` [Example 31, (3′S)-1′-[4-(4-fluoro-1H-indol-1-yl)benzoyl]-1,3′-bipyrrolidine], for which the Kb at Histamine Receptor H3 [1] was under 10 nM. This compound displayed a Ki on Histamine Receptor H3 [2] of under 10 nM.
In the case of `O=C(c1ccc(-n2cnc3ccccc32)cc1)N1CC[C@H](N2CCCC2)C1` [Example 5, (3′S)-1′-[4-(1H-benzimidazol-1-yl)benzoyl]-1,3′-bipyrrolidine hydrochloride], the antagonist dissociation constant (Kb) on Histamine Receptor H3 [1] was 25.1 to 50 nM. Further, the inhibitory constant (Ki) on Histamine Receptor H3 [2] was under 10 nM.
For `Cc1nc2ccccc2n1-c1ccc(C(=O)N2CC[C@H](N3CCCCC3)C2)cc1` [Example 28, 2-methyl-1-(4-{[(3S)-3-piperidin-1-ylpyrrolidin-1-yl]carbonyl}phenyl)-1H-benzimidazole], in that order: under 10 nM and under 10 nM.
For `O=C(c1ccc(-n2ccc3cc(F)ccc32)cc1)N1CC[C@H](N2CCCC2)C1` [Example 37, (3′S)-1′-[4-(5-fluoro-1H-indol-1-yl)benzoyl]-1,3′-bipyrrolidine], in that order: under 10 nM and under 10 nM.
Regarding `O=C(c1ccc(-n2cnc3ccccc32)cc1)N1CCC(N2CCCC2)C1` (stereo not shown) [Example 2, 1′-[4-1H-benzimidazol-1-yl)benzoyl]-1,3′-bipyrrolidine hydrochloride], at Histamine Receptor H3 [1], the Kb is under 10 nM. Besides, the Ki at Histamine Receptor H3 [2] was under 10 nM.
For the compound `C[C@H]1CCCN1[C@H]1CCN(C(=O)c2ccc(-n3cnc4ccccc43)cc2)C1` [Example 7, (2S,3′S)-1′-[4-(1H-benzimidazol-1-yl)benzoyl]-2-methyl-1,3′-bipyrrolidine], the Kb on Histamine Receptor H3 [1] is under 10 nM. On Histamine Receptor H3 [2], this compound registered a Ki of under 10 nM.
For the compound `COc1ccc2c(ccn2-c2ccc(C(=O)N3CC[C@H](N4CCCC4)C3)cc2)c1` [Example 33, (3′S)-1′-[4-(5-methoxy-1H-indol-1-yl)benzoyl]-1,3′-bipyrrolidine], the antagonist equilibrium constant (Kb) at Histamine Receptor H3 [1] was under 10 nM. On Histamine Receptor H3 [2], this compound showed a Ki of under 10 nM.
On to `O=C(c1ccc(-n2cnc3ccccc32)cc1)N1CC[C@H](N2CCCCCC2)C1` [Example 11, 1-(4-{[(3S)-3-azepan-1-ylpyrrolidin-1-yl]carbonyl}phenyl)-1H-benzimidazole], for which the antagonist equilibrium constant (Kb) at Histamine Receptor H3 [1] was under 10 nM. Further, the Ki at Histamine Receptor H3 [2] was under 10 nM.
For the compound `Cc1nc2ccccc2n1-c1ccc(C(=O)N2CC[C@H](N3CCCC(C)C3)C2)cc1` (stereo partly drawn) [Example 24, 2-methyl-1-(4-{[(3S)-3-(3-methylpiperidin-1-yl)pyrrolidin-1-yl]carbonyl}phenyl)-1H-benzimidazole], at Histamine Receptor H3 [1], the Kb was under 10 nM. On Histamine Receptor H3 [2], this compound gave a Ki of under 10 nM.
